The subject of the assay is CD2F1 mice, intracerebral P388 leukemia, median survival T/C%. In words: NCI In Vivo Anticancer Drug Screen. Data for tumor model P388 Leukemia (intracerebral) in CD2F1 (CDF1) mice. The following applies: endpoint: median survival time, higher = longer survival. As for the experimental part: The antitumor activity of compounds was measured in mice bearing transplantable tumors. Survival or tumor size were measured and the results are expressed as the measurement made in the treated group (T) divided by the measurement made in the vehicle treated control group (C). The tumor model used in this assay is P388 Leukemia (intracerebral) in CD2F1 (CDF1) mice

[1] abbreviates: dose: 8.0 mg/kg/injection, schedule: Q01DX009 (ip), vehicle: Klucel (hydroxypropylcellulose) (HPC).
Where [2] appears, read: dose: 8.0 mg/kg/injection, schedule: Q01DX009 (ip), vehicle: saline with Tween-80.
Where [3] appears, read: dose: 16.0 mg/kg/injection, schedule: Q01DX009 (ip), vehicle: Klucel (hydroxypropylcellulose) (HPC).
The mark [4] stands for this setting: dose: 16.0 mg/kg/injection, schedule: Q01DX009 (ip), vehicle: saline with Tween-80.
Where [5] appears, read: dose: 32.0 mg/kg/injection, schedule: Q01DX009 (ip), vehicle: Klucel (hydroxypropylcellulose) (HPC).
[6] abbreviates: dose: 32.0 mg/kg/injection, schedule: Q01DX009 (ip), vehicle: saline with Tween-80.
[7] abbreviates: dose: 64.0 mg/kg/injection, schedule: Q01DX009 (ip), vehicle: Klucel (hydroxypropylcellulose) (HPC).
Where [8] appears, read: dose: 128.0 mg/kg/injection, schedule: Q01DX009 (ip), vehicle: Klucel (hydroxypropylcellulose) (HPC).
The mark [9] stands for this setting: dose: 128.0 mg/kg/injection, schedule: Q01DX009 (ip), vehicle: saline with Tween-80.
Setting [10] is: dose: 256.0 mg/kg/injection, schedule: Q01DX009 (ip), vehicle: saline with Tween-80.
Where [11] appears, read: dose: 4.0 mg/kg/injection, schedule: Q01DX009 (ip), vehicle: saline with Tween-80.
Where [12] appears, read: dose: 64.0 mg/kg/injection, schedule: Q01DX009 (ip), vehicle: saline with Tween-80.
The mark [13] stands for this setting: dose: 1.0 mg/kg/injection, schedule: Q01DX009 (ip), vehicle: saline.
The mark [14] stands for this setting: dose: 2.0 mg/kg/injection, schedule: Q01DX009 (ip), vehicle: saline.
Where [15] appears, read: dose: 4.0 mg/kg/injection, schedule: Q01DX009 (ip), vehicle: saline.
Where [16] appears, read: dose: 8.0 mg/kg/injection, schedule: Q01DX009 (ip), vehicle: saline.

“And” between values parts separate entries of the source, which are not always exact repeats. Equal entries are not always repeated. Toxic doses and inconclusive results are not listed.

On to `CCCCCC(=O)O[C@]1(C(C)=O)CC[C@H]2[C@@H]3CCC4=CC(=O)CC[C@]4(C)[C@H]3CC[C@@]21C`, for which the T/C under setting [1] was 118 % of control and 105 % of control; the T/C under setting [2] was 535 % of control; the T/C under setting [3] was 100 % of control and 111 % of control; the T/C under setting [4] was 100 % of control; the T/C under setting [5] is 118 % of control and 105 % of control; the T/C under setting [6] was 98 % of control. Further, the T/C runs as follows: under setting [7], 102 % of control and 111 % of control; under setting [8], 121 % of control and 100 % of control; under setting [9], 107 % of control; (dose: 256.0 mg/kg/injection, schedule: Q01DX009 (ip), vehicle: Klucel (hydroxypropylcellulose) (HPC)) 120 % of control and 110 % of control; under setting [10], 98 % of control; (dose: 512.0 mg/kg/injection, schedule: Q01DX009 (ip), vehicle: Klucel (hydroxypropylcellulose) (HPC)) 124 % of control and 105 % of control. Also, the T/C (dose: 512.0 mg/kg/injection, schedule: Q01DX009 (ip), vehicle: saline with Tween-80) was 279 % of control.
On to `CC(=O)OCC1C(=O)OCC1C(=O)N1Cc2cc3ccccc3nc2C1` (centres undefined), for which the T/C is 101 % of control under setting [11]; 103 % of control under setting [2]; 96 % of control under setting [4]; 107 % of control under setting [6]; 102 % of control under setting [12]; 96 % of control under setting [9].
For the compound `Nc1ncn(C2OC(CO)C(O)C2O)c(=O)n1` (centres undefined), the T/C runs as follows: (dose: 12.5 mg/kg/injection, schedule: Q01DX009 (ip), vehicle: saline) 219 % of control; (dose: 25.0 mg/kg/injection, schedule: Q01DX009 (ip), vehicle: saline) 230 % of control; (dose: 50.0 mg/kg/injection, schedule: Q01DX009 (ip), vehicle: saline) 290 % of control; (dose: 100.0 mg/kg/injection, schedule: Q01DX009 (ip), vehicle: saline) 303 % of control; (dose: 200.0 mg/kg/injection, schedule: Q01DX009 (ip), vehicle: saline) 303 % of control.
Take `CC[n+]1c(-c2ccccc2)c2cc(N)ccc2c2ccc(N)cc21`: the T/C by setting is: (dose: 6.0 mg/kg/injection, schedule: Q01DX005 (ip), vehicle: saline) 102 % of control; (dose: 12.0 mg/kg/injection, schedule: Q01DX005 (ip), vehicle: saline) 99 % of control and 106 % of control.
As to `CCCCCCCCCCCCCC(=O)OC12CC(C)C3(O)C(C=C(CO)C(O)C4(O)C(=O)C(C)=CC43)C1C2(C)C` (centres undefined), the T/C is 103 % of control (dose: 62.5 micrograms/kg/injection, schedule: Q01DX009 (ip), vehicle: acetone); 98 % of control (dose: 125.0 micrograms/kg/injection, schedule: Q01DX009 (ip), vehicle: acetone); 88 % of control (dose: 250.0 micrograms/kg/injection, schedule: Q01DX009 (ip), vehicle: acetone); 94 % of control (dose: 500.0 micrograms/kg/injection, schedule: Q01DX009 (ip), vehicle: acetone).
For `COc1cccc2c1C(=O)c1c(O)c3c(c(O)c1C2=O)C[C@@](O)(/C(C)=N/NC(=O)c1ccccc1)C[C@@H]3OC1CC(N)C(O)C(C)O1` (some centres undefined), the T/C is 111 % of control (dose: 1.0 mg/kg/injection, schedule: Q01DX009 (ip), vehicle: saline with Tween-80); 103 % of control and 106 % of control under setting [13]; 90 % of control and 108 % of control (dose: 2.0 mg/kg/injection, schedule: Q01DX009 (ip), vehicle: saline with Tween-80); 113 % of control and 106 % of control under setting [14]; 114 % of control and 116 % of control under setting [11]; 113 % of control and 111 % of control under setting [15]. Besides, the T/C was 106 % of control and 111 % of control under setting [2]; 100 % of control and 103 % of control under setting [16]; 90 % of control and 94 % of control under setting [4].
On to `NC(CSC(c1ccccc1)(c1ccccc1)c1ccccc1)C(=O)O` (centres undefined), for which the T/C is, setting by setting: (dose: 32.0 mg/kg/injection, schedule: Q01DX005 (ip), vehicle: Klucel (hydroxypropylcellulose) (HPC)) 99 % of control and 106 % of control; (dose: 64.0 mg/kg/injection, schedule: Q01DX005 (ip), vehicle: Klucel (hydroxypropylcellulose) (HPC)) 102 % of control and 110 % of control; (dose: 128.0 mg/kg/injection, schedule: Q01DX005 (ip), vehicle: Klucel (hydroxypropylcellulose) (HPC)) 114 % of control and 100 % of control; (dose: 256.0 mg/kg/injection, schedule: Q01DX005 (ip), vehicle: Klucel (hydroxypropylcellulose) (HPC)) 121 % of control.
As to `CC1(C)N=C(N)N=C(N)N1c1ccc(CCCCc2cccc(S(=O)(=O)F)c2)c(Cl)c1`, the T/C reads like this: under setting [16], 94 % of control; (dose: 12.0 mg/kg/injection, schedule: Q01DX009 (ip), vehicle: saline) 116 % of control; (dose: 18.0 mg/kg/injection, schedule: Q01DX009 (ip), vehicle: saline) 105 % of control; (dose: 27.0 mg/kg/injection, schedule: Q01DX009 (ip), vehicle: saline) 88 % of control.
In the case of `Nc1ccc2nc3ccc(N)cc3[n+](-c3ccccc3)c2c1`, the T/C runs as follows: under setting [13], 89 % of control; under setting [14], 87 % of control; under setting [15], 99 % of control; under setting [16], 99 % of control.
With `N=[N+]=CC(=O)CCC(NC(=O)C(CCC(=O)C=[N+]=N)NC(=O)CCC(N)C(=O)O)C(=O)O` (centres undefined), the T/C runs as follows: (dose: 0.05 mg/kg/injection, schedule: Q01DX005 (ip), vehicle: Klucel (hydroxypropylcellulose) (HPC)) 106 % of control; (dose: 0.1 mg/kg/injection, schedule: Q01DX005 (ip), vehicle: Klucel (hydroxypropylcellulose) (HPC)) 96 % of control and 104 % of control; (dose: 0.2 mg/kg/injection, schedule: Q01DX005 (ip), vehicle: Klucel (hydroxypropylcellulose) (HPC)) 100 % of control and 103 % of control; (dose: 0.4 mg/kg/injection, schedule: Q01DX005 (ip), vehicle: Klucel (hydroxypropylcellulose) (HPC)) 100 % of control and 105 % of control.
With `CCCCCC(=O)NC(Cc1ccc(N(CCCl)CCCl)cc1)C(=O)O` (centres undefined), the T/C was 94 % of control (dose: 1.3 mg/kg/injection, schedule: Q03HX008 (ip), vehicle: saline); 105 % of control (dose: 2.6 mg/kg/injection, schedule: Q03HX008 (ip), vehicle: saline); 105 % of control (dose: 5.3 mg/kg/injection, schedule: Q03HX008 (ip), vehicle: saline); 100 % of control (dose: 10.6 mg/kg/injection, schedule: Q03HX008 (ip), vehicle: saline); 115 % of control (dose: 21.2 mg/kg/injection, schedule: Q03HX008 (ip), vehicle: saline).
As for `CN(Cc1cnc2nc(N)nc(N)c2n1)c1c(Cl)cc(C(=O)NC(CCC(=O)O)C(=O)O)cc1Cl` (centres undefined), the T/C reads like this: (dose: 16.0 mg/kg/injection, schedule: Q01DX005 (ip), vehicle: saline) 115 % of control; (dose: 32.0 mg/kg/injection, schedule: Q01DX005 (ip), vehicle: saline) 121 % of control; (dose: 128.0 mg/kg/injection, schedule: Q01DX005 (ip), vehicle: saline) 86 % of control.
For `C[C@]12C=CC(=O)C=C1CC[C@@H]1[C@@H]2CC[C@]2(C)OC(=O)CC[C@@H]12`, the T/C runs as follows: under setting [1], 105 % of control and 111 % of control; under setting [2], 95 % of control and 105 % of control; under setting [3], 100 % of control and 103 % of control; under setting [4], 104 % of control and 105 % of control; under setting [5], 114 % of control and 102 % of control; under setting [6], 97 % of control and 104 % of control. For the same compound, the T/C is 100 % of control and 105 % of control under setting [7]; 97 % of control under setting [12]; 91 % of control and 111 % of control under setting [8]; 104 % of control and 112 % of control under setting [9]; 121 % of control and 94 % of control under setting [10].

These data come from PubChem BioAssay AID334 (DTP/NCI, 2004).
